Data as given in ChEMBL document CHEMBL1126491, “Dual antagonists of platelet activating factor and histamine. 2. pyridine ring substitution of N-acetyl-4-(8-chloro-5,6-dihydro-11H-benzo[5,6]cyclohepta[1,2-b]pyridin-11-ylidene)piperidines” (Bioorg Med Chem Lett, 1993).

Legend:
Homo sapiens = species on record: Homo sapiens; assay: Concentration for inhibition of PAF-induced platelet aggregation in human platelet-rich plasma; assay type: functional
Histamine H1 receptor = Histamine H1 receptor (Rattus norvegicus, UniProt P31390); assay: Ability to displace [3H]-pyrilamine from H1 receptor in rat brain membrane.; assay type: cell membranes
Histamine H1 receptor, sequence (P31390 whole entry): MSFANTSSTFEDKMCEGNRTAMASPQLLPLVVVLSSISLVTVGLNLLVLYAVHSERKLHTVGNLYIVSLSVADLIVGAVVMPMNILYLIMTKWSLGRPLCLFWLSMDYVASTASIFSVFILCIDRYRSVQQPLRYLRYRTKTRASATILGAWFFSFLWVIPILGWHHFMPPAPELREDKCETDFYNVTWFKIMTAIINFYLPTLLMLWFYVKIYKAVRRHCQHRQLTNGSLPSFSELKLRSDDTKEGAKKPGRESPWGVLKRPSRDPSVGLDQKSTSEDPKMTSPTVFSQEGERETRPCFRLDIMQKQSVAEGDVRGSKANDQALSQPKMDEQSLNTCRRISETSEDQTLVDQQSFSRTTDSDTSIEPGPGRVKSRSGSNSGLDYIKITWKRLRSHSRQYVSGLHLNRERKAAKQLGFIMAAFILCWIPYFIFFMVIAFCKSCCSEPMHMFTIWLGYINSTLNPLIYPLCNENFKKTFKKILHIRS

CC(=O)N1CCC(=C2c3ccc(Cl)cc3CCc3cc(-c4ccccc4)cnc32)CC1
IC50 (Homo sapiens): 1080 nM
Ki (Histamine H1 receptor): 230 nM

CC(=O)N1CCC(=C2c3ccc(Cl)cc3CCc3ccc(C)nc32)CC1
IC50 (Homo sapiens): 280 nM
Ki (Histamine H1 receptor): 1030 nM

COc1ccc2c(n1)C(=C1CCN(C(C)=O)CC1)c1ccc(Cl)cc1CC2
IC50 (Homo sapiens): 6000 nM
Ki (Histamine H1 receptor): > 10000 nM

CC(=O)N1CCC(=C2c3ccc(Cl)cc3CCc3c(Cl)ccnc32)CC1
IC50 (Homo sapiens): 8000 nM
Ki (Histamine H1 receptor): 240 nM

CC(=O)N1CCC(=C2c3ccc(Cl)cc3CCc3cc(Br)cnc32)CC1
IC50 (Homo sapiens): 2290 nM
Ki (Histamine H1 receptor): 10 nM

COc1ccnc2c1CCc1cc(Cl)ccc1C2=C1CCN(C(C)=O)CC1
IC50 (Homo sapiens): 3040 nM
Ki (Histamine H1 receptor): > 10000 nM

COc1cnc2c(c1)CCc1cc(Cl)ccc1C2=C1CCN(C(C)=O)CC1
IC50 (Homo sapiens): 1480 nM
Ki (Histamine H1 receptor): 430 nM

CSc1cnc2c(c1)CCc1cc(Cl)ccc1C2=C1CCN(C(C)=O)CC1
IC50 (Homo sapiens): 600 nM
Ki (Histamine H1 receptor): 210 nM

CC(=O)N1CCC(=C2c3ccc(Cl)cc3CCc3cc(Cl)cnc32)CC1
IC50 (Homo sapiens): 940 nM
Ki (Histamine H1 receptor): 100 nM

CC(=O)N1CCC(=C2c3ccc(Cl)cc3CCc3c(O)ccnc32)CC1
IC50 (Homo sapiens): ≥ 50000 nM
Ki (Histamine H1 receptor): > 10000 nM

CC(=O)N1CCC(=C2c3ccc(Cl)cc3CCc3cc(C(C)O)cnc32)CC1 (centres undefined)
IC50 (Homo sapiens): 1070 nM
Ki (Histamine H1 receptor): 40 nM

CC(=O)c1cnc2c(c1)CCc1cc(Cl)ccc1C2=C1CCN(C(C)=O)CC1
IC50 (Homo sapiens): 2080 nM
Ki (Histamine H1 receptor): 1160 nM

CC(=O)N1CCC(=C2c3ccc(Cl)cc3CCc3cc(C=O)cnc32)CC1
IC50 (Homo sapiens): 2730 nM
Ki (Histamine H1 receptor): 700 nM

CC(=O)N1CCC(=C2c3ccc(Cl)cc3CCc3cc(CO)cnc32)CC1
IC50 (Homo sapiens): 690 nM
Ki (Histamine H1 receptor): 20 nM

CC(=O)N1CCC(=C2c3ccc(Cl)cc3CCc3ccc(Cl)nc32)CC1
IC50 (Homo sapiens): 610 nM
Ki (Histamine H1 receptor): 1360 nM

CC(=O)N1CCC(=C2c3ccc(Cl)cc3CCc3ccc(O)nc32)CC1
IC50 (Homo sapiens): 6750 nM
Ki (Histamine H1 receptor): > 10000 nM

CC(=O)N1CCC(=C2c3ccc(Cl)cc3CCc3c(C)ccnc32)CC1
IC50 (Homo sapiens): 6000 nM
Ki (Histamine H1 receptor): 230 nM

CC(=O)N1CCC(=C2c3ccc(Cl)cc3CCc3cc(C)cnc32)CC1
IC50 (Homo sapiens): 340 nM
Ki (Histamine H1 receptor): 70 nM

CC(=O)N1CCC(=C2c3ccc(Cl)cc3CCc3cc(O)cnc32)CC1
IC50 (Homo sapiens): 4130 nM
Ki (Histamine H1 receptor): 1580 nM

CC(=O)N1CCC(=C2c3ccc(Cl)cc3CCc3cccnc32)CC1 [SCH-37370]
IC50 (Homo sapiens): 610 nM
